# Where no end group is shown, it is not given here.
# Legend:
# [1] = biological target: T1, H3 protease activity in fraction #23 (Mus musculus, UniProt P06797); test: In vitro H3 cleavage assay of hydroxyapatite fraction #23 +/- protease inhibitors; type: biochemical
# T1 construct: a double chain mature form at ˜25 kD and ˜5 kD; endogenous in cells; host or cells: chromatin of 3 days +RA differentiating mouse ESCs (LF2), hydroxyapatite fraction #23
# Experimental: (§1) Extracts were incubated in buffer (10 mM HEPES, 10 mM KCl, 1.5 mM MgCl2, 0.34M sucrose, 10% glycerol, 5 mM β-mercaptoethanol, all final) with 0.1 μg/μl rH3-HIS (purified from E. coli) and incubated at 37° C. for 1-3 hours. Reactions were stopped by addition of 5×SDS sample buffer and boiling; results were analyzed by immunoblotting with HIS-HRP and/or H3.cs1 antibody. For MS analysis, reactions were quenched by addition of 0.1% (final) TFA. rCathepsin L (R&D Systems, # 1515-CY-010), rCathepsin B (R&D Systems Cat No. BAF965), and rCathepsin K (Calbiochem Cat. No. 342001) were purchased from commercial sources and tested in the assay with rH3-HIS.
# Three days+RA differentiating ESC chromatin pellets were solubilized by sonication in buffer A (80 mM NaPO^−4, 200 mM NaCl), injected onto a 2 or 5 mL hydroxyapatite column (BioRad), and fractionated with a 200 mM to 2M NaCl gradient. Each fraction was then assayed as described above. […] Digest was then acidified with glacial acetic acid and aliquots of samples were analyzed using an LTQ-FT as described above. Data was searched against a mouse database using SEQUEST (Eng et al., Journal of the American Society of Mass Spectrometry 5:976-989 (1994), which is hereby incorporated by reference in its entirety). All spectra of interest were manually validated.
# To validate further the identification of Cathepsin L as a histone H3 protease, the enriched fractions were tested with different classes of protease inhibitors in the H3 cleavage assay.
# [2] = biological target: T2, Recombinant mouse Cathepsin L (Mus musculus, UniProt P06797); test: Inhibition of recombinant mouse Cathepsin L cleavage of rH3-HIS by E64 (immunoblot, FIG. 13); type: biochemical; details: pH 7.5 and pH 5.5; E64 10 μM, 50 μM, and 500 μM
# T2 construct: purchased R&D Systems 1515-CY-010
# T2 sequence (P06797 114-334): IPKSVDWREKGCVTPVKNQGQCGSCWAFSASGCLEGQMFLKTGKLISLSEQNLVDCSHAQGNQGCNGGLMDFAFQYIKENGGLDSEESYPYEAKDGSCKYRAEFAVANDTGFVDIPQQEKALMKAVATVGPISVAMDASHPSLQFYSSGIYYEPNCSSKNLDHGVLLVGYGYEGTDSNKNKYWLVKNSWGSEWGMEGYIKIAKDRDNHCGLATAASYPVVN
# Experimental: Recombinant mouse Cathepsin L was incubated with C-terminally HIS-tagged recombinant histone H3 at both pH 7.5 (left) and pH 5.5 (right) in either buffer alone (−) or in the presence of the cysteine protease inhibitor E64 (+); the final concentration of E64 was 10 μM, 50 μM, and 500 μM.
# as §1
# [3] = biological target: cathepsin L (Homo sapiens, UniProt P07711); details: cited from earlier work
# Sequence of cathepsin L (P07711 114-333, species assumed): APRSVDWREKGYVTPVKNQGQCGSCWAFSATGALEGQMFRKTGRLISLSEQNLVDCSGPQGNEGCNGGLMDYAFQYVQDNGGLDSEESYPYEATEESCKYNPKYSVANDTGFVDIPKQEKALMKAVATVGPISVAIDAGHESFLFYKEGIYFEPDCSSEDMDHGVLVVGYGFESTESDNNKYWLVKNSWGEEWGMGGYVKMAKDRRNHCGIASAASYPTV
# [4] = biological target: cathepsin D (Homo sapiens, UniProt P07339); details: cited from earlier work
# Sequence of cathepsin D (P07339 65-412): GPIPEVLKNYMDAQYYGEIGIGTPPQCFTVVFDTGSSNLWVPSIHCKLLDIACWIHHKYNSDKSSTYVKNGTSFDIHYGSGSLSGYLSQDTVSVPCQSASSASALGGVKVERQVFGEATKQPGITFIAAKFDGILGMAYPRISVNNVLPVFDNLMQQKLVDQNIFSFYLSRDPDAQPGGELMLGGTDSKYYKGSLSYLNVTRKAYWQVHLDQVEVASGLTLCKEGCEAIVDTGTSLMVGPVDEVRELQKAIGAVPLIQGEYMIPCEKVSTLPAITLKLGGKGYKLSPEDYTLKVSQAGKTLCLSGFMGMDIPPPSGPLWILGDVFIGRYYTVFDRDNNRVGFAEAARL
# [5] = biological target: T3, Cbx7-CD protein (Mus musculus, UniProt Q8VDS3); test: Fluorescence anisotropy of Cbx7-CD binding to H3 peptides; details: p<0.01
# T3 construct: the chromodomain of mouse CBX7; made in house
# T3 sequence (Q8VDS3 11-69 limits assumed): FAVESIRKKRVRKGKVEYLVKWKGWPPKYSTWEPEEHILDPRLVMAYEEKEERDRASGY
# Experimental: FIG. 7A is an immunoblot showing cleavage of the modified recombinant histone 3 substrates following incubation with rCathepsin L. The four rH3 substrates used in the cleavage assay include: 1=rH3 unmodified, 2=rH3 alkylated to K27me2, 3=rH3 pan-acetylated with acetic anhydride, 4=rH3+K27me2 pan-acetylated with acetic anhydride. FIG. 7B is a graph showing the amount of recombinant H3 cleavage product formed following incubation with Cathepsin L. H3 cleavage reactions were performed as in FIG. 7A using synthesized H3 peptides representing amino acids 15 to 31. Reactions were incubated with ˜250 pmol peptide and quenched with 0.1% TFA before being plated in duplicate for ELISA with the H3cs.1 antibody. Signal was normalized to that of mock reactions for each peptide. Results represent three independent experiments. […] Binding decreases 3-fold with cleaved peptide. p<0.01. Kds are in μM±SEM. Data points represent the mean±SD
# What effect the cleavage of the H3 tail, a proteolytic modification rather than a covalent modification, might have on the binding of effector proteins was examined. […]
# [6] = biological target: T4, chromodomain of mouse CBX7 (Mus musculus, UniProt Q8VDS3); test: Peptide pull-down assay; type: binding; details: cleaved vs non-cleaved H3 tail peptide
# T4 construct: the chromodomain of mouse CBX7; made in house
# T4 sequence (Q8VDS3 11-69 limits assumed): T3 sequence (Q8VDS3 11-69 limits assumed)
# Experimental: Peptide pull-down assays were performed as described Wysocka, J. “Identifying Novel Proteins Recognizing Histone Modifications Using Peptide Pull-down Assay,” Methods 40:339-343 (2006), which is hereby incorporated by reference in its entirety, using biotinylated peptides conjugated to streptavidin agarose beads (Pierce Cat. No. 20349). Elutions were loaded onto 10 or 15% SDS-PAGE gels and silver stained.
# What effect the cleavage of the H3 tail, a proteolytic modification rather than a covalent modification, might have on the binding of effector proteins was examined. Given that K27 methylation is a well-documented binding site for the chromodomain-containing protein Polycomb (Bernstein et al., “Mouse Polycomb Proteins Bind Differentially to Methylated Histone H3 and RNA and are Enriched in Facultative Heterochromatin,” Mol Cell Biol 26:2560-2569 (2006) and Fischle et al., “Molecular Basis for the Discrimination of Repressive Methyl-lysine Marks in Histone H3 by Polycomb and HP1 Chromodomains,” Genes Dev 17:1870-1881 (2003), which are hereby incorporated by reference in their entirety), the effect of H3 cleavage on Pc binding to H3K27 methylation was tested. […]
# T1 sequence (P06797 114-288 limits assumed): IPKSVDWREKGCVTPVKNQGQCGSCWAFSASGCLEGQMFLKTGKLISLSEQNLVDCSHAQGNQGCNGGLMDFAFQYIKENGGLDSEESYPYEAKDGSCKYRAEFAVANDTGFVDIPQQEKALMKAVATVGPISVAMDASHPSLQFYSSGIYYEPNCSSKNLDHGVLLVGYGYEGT
# T1 sequence (P06797 291-334 limits assumed): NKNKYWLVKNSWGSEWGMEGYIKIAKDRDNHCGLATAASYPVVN
compound,measurement,setting,value
"CC(C)C[C@H](NC(=O)[C@H]1O[C@@H]1C(=O)O)C(=O)NCCCCN=C(N)N (relative stereo) [E64, L-trans-Epoxysuccinyl-leucylamido(4-guanidino)butane]",H3 cleavage activity,"[1]; E64 10 μM, lowest concentration tested",all cleavage was abolished
same,inhibition of H3 protease activity in fraction #23,[1]; FIG. 4A,potent inhibitor of the H3 protease activity
same,inhibition of recombinant mouse Cathepsin L (rH3-HIS cleavage),[2],inhibition of recombinant mouse Cathepsin L
NC(N)=O [Urea],"enhancement of cathepsin L activity, factor",[3],2.5
same,"enhancement of cathepsin D activity, factor",[4],6
"cleaved peptide: peptide mimicking the cleaved H3 tail, amino acid residues 22-37, K27 methylated (TKAARK(Me)SAPATGGVKK; not fully specified)",decrease in Cbx7-CD binding vs non-cleaved peptide (amino acid residues 18-37),[5],3 fold
same,CBX7 binding to methylated H3K27,[6],greatly diminished

# Source: patent publication US20110312897A1, “CATHEPSIN L PROTEOLYTICALLY PROCESSES HISTONE H3 DURING MOUSE EMBRYONIC STEM CELL DIFFERENTIATION” (THE ROCKEFELLER UNIVERSITY, priority 2008, published 2011)
